Source: a melting point compilation (Tetko et al.; mined from patent text by program, amines drawn as free bases though some values may be those of a salt)

Structure (SMILES)	melting point
COC(=O)c1cc(C(=O)OC)cc(P(c2ccccc2)c2ccccc2)c1	103 to 104 °C
c1ccc(C2(c3ccccc3)CCSCC2)cc1	134 °C
O=C(O)c1ccc(NC(=O)c2ccc3c(c2)OCCO3)cc1	278 to 280 °C
O=C(/C=C/c1ccc(C(=O)Nc2cccc(Nc3nc(-c4cccnc4)cs3)c2)cc1)NO	101 °C
CC(C)(C)OC(=O)CC[C@H](NC(=O)c1ccc(N(CCCl)CCCl)cc1)C(=O)OC(C)(C)C	114 to 116 °C
CCC(=O)NCCC1=C(Cc2ccccc2)Cc2ccc(OC)cc21	149 to 151 °C
Oc1cccc(NCCc2ccccn2)c1	118 to 120 °C
Cc1c(S(C)=O)c(C#N)nn1-c1c(Cl)cc(C(F)(F)F)cc1Cl (stereo not drawn)	109 to 115 °C
O=CN1CCN(c2ccnc(Cl)n2)CC1	125 to 126 °C
CCN(CC)C(=O)n1cc(F)c(S(=O)(=O)c2c(C)cc(C)cc2C)n1	109 to 111 °C
CC(=NO)C1=CCCN(Cc2ccccc2)C1	103 to 105 °C
Cn1nc(-c2ccccc2)c(N=O)c1N	230 to 231 °C
Cc1cc2n(C)c3ncccc3c(=O)n2n1	242 °C
C[C@H]1CCCC(C)(C)[C@@H]1[C@H](O)c1ccccc1	32 to 34 °C
COc1ccc(-c2ccnc3c(C(N)=O)ncn23)cc1OC	262 to 265 °C
CCNC(=O)C(I)=C(Br)I	154 to 155 °C
CNC(=O)Cn1c(-c2ccc(C)s2)nc2cccnc21	213 to 216 °C
Cc1cc(NC(=O)C(C)(O)COc2cccc(F)c2F)ccc1[N+](=O)[O-] (stereo not drawn)	68 to 73 °C
O=C(O)C1C=Nc2c(cc(F)cc2[N+](=O)[O-])C1=O (stereo not drawn)	254 to 256 °C
Cc1cc(C(N)=O)ncc1C(c1c(F)ccc(F)c1F)S(=O)(=O)CC1CC(F)(F)C1 (stereo not drawn)	205 to 207 °C
CSc1c(C)[nH]c2c(C)cccc12	32 to 33 °C
Cc1cc2c(C)cc(=O)oc2cc1O	273 °C
CC(C)(C)OC(=O)Cn1c(C(=O)O)cc2cc(N)ccc21	128 °C
CCOC(=O)NN=C(CO)c1cccc(Cl)c1	109 to 110 °C
O=C(OCCCSc1cccc2nccn12)c1ccccc1	60 to 61 °C

Structure (SMILES)	melting point
CC12CCC(F)CC1=CCC1C2CCC2(C)C(O)CCC12 (stereo not drawn)	165 to 166 °C
N#Cc1ccc(-c2nc(N3C(=O)OCC34CC4)sc2F)cc1	222 to 224 °C
CC(=O)Nc1ccc2c(c1)C(c1ccccc1F)=NCc1cnc(C)n1-2	326 to 331 °C
CCOC(=O)NC(=O)n1c(-c2cc(OC)c(O)c(OC)c2)nc(-c2ccc(N(CC)CC)cc2)c1-c1ccc(N(CC)CC)cc1	60 °C
CC(C)c1ccc(-c2ccc(/C=C/C(=O)Nc3ccc(CN(C)C4CCOCC4)cc3)s2)cc1	187 to 189 °C
O=c1[nH][nH]c(C(F)(F)F)c1Cc1ccc2c(c1)OCO2	196 to 197 °C
O=C(O)COc1ccc(OCC2CCN(c3ccncc3)CC2)cc1	278 to 281 °C
CC(O)CNC1(F)C=CC(N)=C([N+](=O)[O-])C1 (stereo not drawn)	97 °C
Cc1c(C)c2c(c(C)c1N)CC(C)(CN1CC=C(c3c[nH]c4ccccc34)CC1)O2 (stereo not drawn)	169 to 173 °C
COc1cccc(C=C2NC(=O)NC2=O)c1OCc1ccccc1	210 to 212 °C
CC1(C)C(c2ccc(S(C)(=O)=O)cc2)=C(c2ccccc2)C1(C)O (stereo not drawn)	114 to 115 °C
CCOC(=O)N1CCc2c(sc3nc(-c4ccc(F)cc4)cn23)C1	164 to 166 °C
CCCS(=O)(=O)Oc1c(C(=O)c2ccc3c(c2C)C(N(C)C(=O)OC)CCS3(=O)=O)cnn1CC (stereo not drawn)	156 to 159 °C
CCCc1c(OCCCCCCc2cc(O)c(O)c(C(C)C)c2)ccc(C(=O)O)c1O	138 to 140 °C
Cc1cc(Br)cnc1CCCCNC1=NS(=O)(=O)N=C1N	219 to 220 °C
COCOCC(=O)C1CCC2C3CCC4=CC(=O)CCC4(C)C3CCC12C (stereo not drawn)	195 °C
O=C(c1ccncc1)N1CCC(=C2c3ccccc3CCn3ccnc32)CC1	207 to 209 °C
CCCc1nn(CC)c2c(=O)n(CCOc3cccc(OC(C)(C)C(=O)O)c3)c(C)nc12	147 to 149 °C
COc1ccc(-c2cc3ncc(SC)c(O)c3s2)cc1	283 to 287 °C
Cc1nc(C)c(Cl)c(NCc2nccc(SCCCCBr)c2C)n1	127 to 128 °C
O=C(O)[C@@H](CCN1Cc2ccccc2C1=O)Oc1c(Br)cc(-c2c3ccccc3c(Br)c3sc4ccccc4c23)cc1Br	239 to 241 °C
Cc1ccc(C(=O)CO)cc1	83 to 87 °C
O=C(NCCCc1c[nH]c(-c2ccc(F)cc2)c1-c1ccncc1)C(F)(F)F	229 to 230 °C
COc1ccc(-c2cc3cc(Br)ccc3o2)cc1	189 °C

Next, values leading:

melting point	Structure (SMILES)
133 to 134 °C	CCCCCCCCC1OC(=O)c2cc(NC(C)=O)ccc21 (stereo not drawn)
114 to 115 °C	CC(C)NC(=O)C1OC1c1ccccc1 (stereo not drawn)
157 to 159 °C	Cc1cccc(C2(O)CCN(CC3CCc4ccccc4C3=O)CC2)c1 (stereo not drawn)
92 °C	CCc1ccc(C2CCCN2S(=O)(=O)c2ccc(C)cc2)cc1 (racemic)
107 to 112 °C	CCCCOC(=O)c1ccc2cc(O)ccc2c1
125 to 126 °C	CC12CCC3C(CC(Cl)C4(O)CC=CCC34C)C1CC=C2Br (stereo not drawn)
208 to 210 °C	O=C(Nc1ccccn1)c1c(C(F)(F)F)nc(-c2ccccc2)c(-c2ccccc2)c1O
183 °C	CCCCCCCCOc1ccc(C(=O)Oc2ccc(-c3ccc(O)cc3)cc2)cc1
87 to 89 °C	CCOC(=NC(=O)CCl)N1Cc2ccccc2-c2ccccc2C1
181 to 183 °C	O=C(O)CCc1ccc2c(c1)Cc1ccccc1CO2
196 to 199 °C	CN(N=Cc1ccco1)C(=O)c1[nH]c2ccccc2c1-c1ccccc1
70 to 71 °C	CNS(=O)(=O)Cc1ccc2[nH]cc(CCN=CNc3cccnc3)c2c1
75 to 77 °C	CC(C)(C)OC(=O)N1CC2CC(CN(CC(O)COc3ccc(C(C)(C)C)cc3)C2)C1 (stereo not drawn)
127 to 129 °C	c1ccc2c(N3CCCC3)nc(N3CCCC3)nc2c1
64 to 65 °C	CC1=C(Cc2ccc(C(C)C)cc2)C(=O)C2C=CC=CC2C1=O (stereo not drawn)
182 to 185 °C	COc1cc(C)nc(N(C)C(=O)NS(=O)(=O)c2cc(Cl)ccc2Cl)n1
169 to 172 °C	CS(=O)(=O)Nc1cccc2c(-c3ccccc3)c([N+](=O)[O-])oc12
145 to 146 °C	CN(C(=O)c1ccc2nonc2c1)[C@H]1CC[C@H](N)CC1
71 to 72 °C	CCCCCCCCCCS(=O)(=O)Oc1c(I)cc(I)cc1I
166 to 167 °C	C=CCOc1cccc(C(=O)O)c1C(=O)O
112 to 113 °C	O=C1C(=Cc2ccccc2)COc2ccccc21
118 to 120 °C	CO/N=C(/C(=O)O)c1ccc(OCCOc2ccc3ccccc3c2)s1
146 to 147 °C	Oc1ccc2c(c1)OCC(c1ccc(F)cc1)C2c1ccc(OCCN2CCCCC2)cc1 (stereo not drawn)
145 to 146 °C	Cc1ccc(-c2nc3ccc(CN4CCN(C)CC4)cc3[nH]2)cc1C#Cc1ccc(NC2CC2)nn1
186 to 187 °C	CC(=NOCCOc1ccc(CC2SC(=O)N(C(c3ccccc3)(c3ccccc3)c3ccccc3)C2=O)cc1)c1ccc(-c2ccccc2)nc1 (stereo not drawn)
81 °C	COC(=O)c1ccc(OCCNC(=O)OCc2ccccc2)c(Cl)c1
110 to 115 °C	CN(C(c1ccccc1)c1ccccc1)S(=O)(=O)CC(N)=O

melting point	Structure (SMILES)
49.5 to 50 °C	CSc1ccc(OC(=O)OCc2ccccc2Cl)cc1
248 to 250 °C	Cc1c(CCc2ccccc2)c(=O)oc2cc(OCc3nnn[nH]3)cc(OCc3nnn[nH]3)c12
189 to 190 °C	CC(=O)Oc1cccc2c1C(=O)c1c(OC(C)=O)cc(-c3nnn[nH]3)cc1C2=O
161 to 163 °C	COc1cc(OC)nc(Oc2cccc3c2C(=O)OC3SC#N)n1 (stereo not drawn)
233 to 235 °C	CC1(C(=O)c2c[nH]c3ncc(-c4ccc(N5CCOCC5)cc4)nc23)CCCCC1
28 °C	CC1=CC(=O)C(C)=C(C)C1=O
88 to 90 °C	CN(CCOc1ccc(CC2SC(=O)NC2=O)cc1)C(=O)Nc1ccccc1 (stereo not drawn)
262 to 268 °C	CSC1=C(Cl)CC2C3CCC4=CC(=O)C=CC4(C)C3(F)C(O)CC12C (stereo not drawn)
93 to 95 °C	COC(=O)c1sccc1NC(C)=O
137 to 139 °C	CCCCc1nn(-c2cc([N+](=O)[O-])ccc2Br)c(=O)n1Cc1ccc(-c2ccccc2S(=O)(=O)NC(C)(C)C)cc1F
58 to 60 °C	Cc1nn(C)c(OCC(=O)C(C)(C)CCl)c1C(=O)c1ccc(Cl)cc1Cl
164 to 166 °C	O=C(NCc1ccccc1)c1cnccc1-c1ccccc1
124 to 126 °C	NC(=O)N(O)CCc1ccc(Sc2cccc(C(F)(F)F)c2)s1
66 to 67 °C	CC(C)c1ccccc1SC1=C(O)CC(CCc2ccccc2)(c2ccccc2)OC1=O (stereo not drawn)
151 to 153 °C	Cn1c(C(F)(F)F)cc(=O)n(-c2ccc(Cl)c(C=O)c2)c1=O
261 to 265 °C	O=C(O)c1ccc2c(c1)S(=O)c1ccccc1CC2 (stereo not drawn)
118 to 120 °C	CC(CC(=O)Nc1c(Cl)ccc2nc(CCCNCCCO)ccc12)c1ccccc1 (stereo not drawn)
70.1 to 72 °C	O=c1ccc(C(F)(F)F)cn1Cc1ccc(F)cc1
95 to 97 °C	CCN(CC)CCc1ccc2[nH]c(C)c(C(=O)O[C@@H](C)c3ccccc3)c2c1
215 to 218 °C	COc1ccc(C2C(C#N)=C(N)Oc3c2ccc2cnccc32)cc1OC (stereo not drawn)
121 to 122 °C	O=C(CC=C(Cl)C1(Cl)OC1=O)c1ccccc1 (stereo not drawn)
200 °C	COc1cc(CCN2CCN(c3nsc4ccccc34)CC2)c(NC(=O)Nc2ccccc2C)cc1OC
158 to 159 °C	O=C1CC2CC(O)(c3ccccc3)CC2C1 (stereo not drawn)
238 °C	Cn1c(=O)cc(CC(=O)O)c2cc(C#N)ccc21
222 to 228 °C	COc1ccc(OC)c2c(=O)c3c(Cl)ccc([N+](=O)[O-])c3sc12
73 to 74 °C	CC(C)(C)n1nnc(Cc2ccc(CBr)cc2)n1
226 °C	CCCN(CCC)c1nc2c(N3CCSCC3)nccc2c(=O)[nH]1
